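How tested: cells in 96-well plates exposed to compound for 48 hours at five concentrations. GI50: concentration for 50% inhibition of growth. Definition used: TGI = concentration required for complete inhibition of growth.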
How the values were obtained:
Test in all cases: growth of human tumour cells (NCI), 48 h; in the data active means GI50 below about 0.43 µM; inactive means the rest
MDA-MB-468 breast = tested on: MDA-MB-468 breast
UO-31 renal = tested on: UO-31 renal
SK-OV-3 ovarian = tested on: SK-OV-3 ovarian
SR leukemia = tested on: SR leukemia
SK-MEL-5 melanoma = tested on: SK-MEL-5 melanoma
UACC-62 melanoma = tested on: UACC-62 melanoma
MOLT-4 leukemia = tested on: MOLT-4 leukemia
UACC-257 melanoma = tested on: UACC-257 melanoma
NCI-H522 lung = tested on: NCI-H522 lung
SNB-19 CNS = tested on: SNB-19 CNS
HT29 colon = tested on: HT29 colon
MCF7 breast = tested on: MCF7 breast
SF-268 CNS = tested on: SF-268 CNS
MALME-3M melanoma = tested on: MALME-3M melanoma
HS 578T breast = tested on: HS 578T breast
HCT-15 colon = tested on: HCT-15 colon
CAKI-1 renal = tested on: CAKI-1 renal
SK-MEL-28 melanoma = tested on: SK-MEL-28 melanoma
HOP-92 NSCLC = tested on: HOP-92 NSCLC
PC-3 prostate = tested on: PC-3 prostate
SN12C renal = tested on: SN12C renal
EKVX NSCLC = tested on: EKVX NSCLC
786-0 renal = tested on: 786-0 renal
TK-10 renal = tested on: TK-10 renal
SF-539 CNS = tested on: SF-539 CNS
M14 melanoma = tested on: M14 melanoma
OVCAR-8 ovarian = tested on: OVCAR-8 ovarian
HCT-116 colon = tested on: HCT-116 colon
MDA-MB-435 = tested on: MDA-MB-435
DU-145 prostate = tested on: DU-145 prostate
OVCAR-3 ovarian = tested on: OVCAR-3 ovarian
IGROV1 ovarian = tested on: IGROV1 ovarian
HOP-62 NSCLC = tested on: HOP-62 NSCLC
NCI-H23 lung = tested on: NCI-H23 lung
U251 CNS = tested on: U251 CNS
RXF 393 renal = tested on: RXF 393 renal
SW-620 colon = tested on: SW-620 colon
A498 renal = tested on: A498 renal
BT-549 breast = tested on: BT-549 breast
K-562 leukemia = tested on: K-562 leukemia
NCI-H460 lung = tested on: NCI-H460 lung
HL-60(TB) leukemia = tested on: HL-60(TB) leukemia
A549 NSCLC = tested on: A549 NSCLC
T-47D breast = tested on: T-47D breast
MDA-MB-231 breast = tested on: MDA-MB-231 breast
OVCAR-4 ovarian = tested on: OVCAR-4 ovarian
ACHN renal = tested on: ACHN renal
OVCAR-5 ovarian = tested on: OVCAR-5 ovarian
SF-295 CNS = tested on: SF-295 CNS
COLO 205 colon = tested on: COLO 205 colon
NCI-H226 lung = tested on: NCI-H226 lung
KM12 colon = tested on: KM12 colon
SK-MEL-2 melanoma = tested on: SK-MEL-2 melanoma
HCC-2998 colon = tested on: HCC-2998 colon

Nc1ncn([C@@H]2S[C@H](CO)[C@@H](O)[C@@H]2F)c(=O)n1
inactive: GI50 (MDA-MB-468 breast) > 100 µM
> 100 µM: TGI (MDA-MB-468 breast)

CC(CO)Nc1cc(-c2[nH]c3cccnc3c2-c2ccc(F)cc2)ccn1 (stereo not given)
inactive: GI50 (MDA-MB-468 breast) 6.74 µM
> 25 µM: TGI (MDA-MB-468 breast)

N#C[Se]Cc1cc(-c2ccccc2)n(-c2ccc(S(N)(=O)=O)cc2)n1
inactive: GI50 (MDA-MB-468 breast) 1.59 µM
3.47 µM: TGI (MDA-MB-468 breast)

CN1CCC(CNc2cc(C3(C(=O)Nc4cc(C(=O)Nc5ccc(Cl)c(C(F)(F)F)c5)ccc4F)CC3)ncn2)CC1
inactive: GI50 (MDA-MB-468 breast) 1.83 µM
4.41 µM: TGI (MDA-MB-468 breast)

O=S(=O)(Nc1ccc(Br)cc1)c1ccc(-c2cnc(C3CC3)o2)cc1
7.28 µM: TGI (MDA-MB-468 breast)
inactive: GI50 (MDA-MB-468 breast) 1.13 µM

COc1cccc(-c2nc3cc(NC(=O)c4ccc(Cl)c(C#N)c4)ccc3o2)c1
inactive: GI50 (MDA-MB-468 breast) 1.6 µM
3.44 µM: TGI (MDA-MB-468 breast)

CCN1C(=O)N(CC)C2C1NN=c1s/c(=C\c3ccc(Cl)cc3Cl)c(=O)n12 (stereo not given)
19.4 µM: TGI (MDA-MB-468 breast)
active: GI50 (MDA-MB-468 breast) 0.0417 µM

O=C(O)c1nc(NCc2nc3cc(Cl)ccc3o2)n[nH]1
inactive: GI50 (MDA-MB-468 breast) > 100 µM
> 100 µM: TGI (MDA-MB-468 breast)

C=C1CCC2C3(C)COC(C)(C)OC3CCC2(C)C1C/C=C1/C(=O)OCC1OC(C)=O (stereo not given)
inactive: GI50 (MDA-MB-468 breast) 1.44 µM
3.06 µM: TGI (MDA-MB-468 breast)

c1ccc(-c2nc(-c3ccccn3)nc(-c3ccccn3)n2)nc1
inactive: GI50 (MDA-MB-468 breast) 30.4 µM
99.1 µM: TGI (MDA-MB-468 breast)

CC1=C2C(=C[C@@](C)(CO)[C@@H]2OC(=O)N(C)CCN(C)C(=O)OC(C)(C)C)C(=O)[C@](C)(O)C12CC2
inactive: GI50 (MDA-MB-468 breast) 1.1 µM
3.8 µM: TGI (MDA-MB-468 breast)

Cc1cc(=O)oc2cc(OCCOc3ccc(/C=C/C(=O)Nc4ccccc4N)cc3)ccc12
1.34 µM: TGI (MOLT-4 leukemia)
35.1 µM: TGI (MDA-MB-231 breast)
active: GI50 (MOLT-4 leukemia) 0.294 µM | GI50 (HL-60(TB) leukemia) 0.369 µM
96.2 µM: TGI (MDA-MB-468 breast)
9.36 µM: TGI (A498 renal)
inactive: GI50 (UO-31 renal) 1.31 µM | GI50 (SK-OV-3 ovarian) 8.39 µM | GI50 (SR leukemia) 5.66 µM | GI50 (SK-MEL-5 melanoma) 1.48 µM | GI50 (UACC-62 melanoma) 3.74 µM | GI50 (UACC-257 melanoma) 2.87 µM | GI50 (NCI-H522 lung) 4 µM | GI50 (SNB-19 CNS) 4.42 µM | GI50 (HT29 colon) 4.45 µM | GI50 (MCF7 breast) 1.27 µM | GI50 (SF-268 CNS) 4.43 µM | GI50 (MALME-3M melanoma) 3.89 µM | GI50 (HS 578T breast) > 100 µM | GI50 (HCT-15 colon) 3.17 µM | GI50 (CAKI-1 renal) 4.58 µM | GI50 (SK-MEL-28 melanoma) 5.2 µM | GI50 (HOP-92 NSCLC) 3.45 µM | GI50 (PC-3 prostate) 3.1 µM | GI50 (SN12C renal) 2.77 µM | GI50 (EKVX NSCLC) 6.5 µM | GI50 (786-0 renal) 3.75 µM | GI50 (TK-10 renal) 9.25 µM | GI50 (SF-539 CNS) 2.58 µM | GI50 (M14 melanoma) 9.87 µM | GI50 (OVCAR-8 ovarian) 3.99 µM | GI50 (HCT-116 colon) 3.31 µM | GI50 (MDA-MB-435) 6.69 µM | GI50 (DU-145 prostate) 6.8 µM | GI50 (OVCAR-3 ovarian) 4.19 µM | GI50 (IGROV1 ovarian) 2.08 µM | GI50 (HOP-62 NSCLC) 8.17 µM | GI50 (NCI-H23 lung) 6.05 µM | GI50 (U251 CNS) 5.59 µM | GI50 (RXF 393 renal) 3.64 µM | GI50 (MDA-MB-468 breast) 3.41 µM | GI50 (SW-620 colon) 4.16 µM | GI50 (A498 renal) 2.74 µM | GI50 (BT-549 breast) 1.2 µM | GI50 (K-562 leukemia) 3.01 µM | GI50 (NCI-H460 lung) 2.74 µM | GI50 (A549 NSCLC) 4.27 µM | GI50 (T-47D breast) 1.59 µM | GI50 (MDA-MB-231 breast) 2.55 µM | GI50 (OVCAR-4 ovarian) 4.86 µM | GI50 (ACHN renal) 5.52 µM | GI50 (OVCAR-5 ovarian) 6.43 µM | GI50 (SF-295 CNS) 4.8 µM | GI50 (COLO 205 colon) 3.68 µM | GI50 (NCI-H226 lung) 4.09 µM | GI50 (KM12 colon) 5.12 µM | GI50 (SK-MEL-2 melanoma) 5.81 µM | GI50 (HCC-2998 colon) 5.47 µM
4.93 µM: TGI (BT-549 breast)
2.62 µM: TGI (HL-60(TB) leukemia)
> 100 µM: TGI (UO-31 renal) | TGI (SK-OV-3 ovarian) | TGI (SR leukemia) | TGI (UACC-62 melanoma) | TGI (UACC-257 melanoma) | TGI (NCI-H522 lung) | TGI (SNB-19 CNS) | TGI (HT29 colon) | TGI (MCF7 breast) | TGI (SF-268 CNS) | TGI (MALME-3M melanoma) | TGI (HS 578T breast) | TGI (HCT-15 colon) | TGI (CAKI-1 renal) | TGI (SK-MEL-28 melanoma) | TGI (HOP-92 NSCLC) | TGI (PC-3 prostate) | TGI (SN12C renal) | TGI (EKVX NSCLC) | TGI (786-0 renal) | TGI (TK-10 renal) | TGI (SF-539 CNS) | TGI (M14 melanoma) | TGI (OVCAR-8 ovarian) | TGI (HCT-116 colon) | TGI (MDA-MB-435) | TGI (DU-145 prostate) | TGI (OVCAR-3 ovarian) | TGI (IGROV1 ovarian) | TGI (HOP-62 NSCLC) | TGI (NCI-H23 lung) | TGI (U251 CNS) | TGI (RXF 393 renal) | TGI (SW-620 colon) | TGI (K-562 leukemia) | TGI (NCI-H460 lung) | TGI (A549 NSCLC) | TGI (T-47D breast) | TGI (OVCAR-4 ovarian) | TGI (ACHN renal) | TGI (OVCAR-5 ovarian) | TGI (SF-295 CNS) | TGI (COLO 205 colon) | TGI (NCI-H226 lung) | TGI (KM12 colon) | TGI (SK-MEL-2 melanoma) | TGI (HCC-2998 colon)
3.2 µM: TGI (SK-MEL-5 melanoma)
